Assay: method code SF-AS, from Novello, F.; Sprague, M. (1967). Structure-activity relations among the thiazole diuretics. Ind. Chim. Belge, 32(Spec.No.), 222-225.

logD (pH 6.5) | logD (pH 6.4) | Compound
0.82 |  | NS(=O)(=O)c1cc2c(cc1Cl)NC(C(Cl)(Cl)Cl)NS2(=O)=O (stereo not drawn)
1.27 |  | NS(=O)(=O)c1cc2c(cc1Cl)NC(CC1CCCC1)NS2(=O)=O (stereo not drawn)
1.8 |  | NS(=O)(=O)c1cc2c(cc1Cl)NC(C1CC3C=CC1C3)NS2(=O)=O (stereo not drawn)
0.3 |  | CCC1Nc2cc(Cl)c(S(N)(=O)=O)cc2S(=O)(=O)N1 (stereo not drawn)
0.85 |  | CC1CCC2(CC1)Nc1cc(Cl)c(S(N)(=O)=O)cc1S(=O)(=O)N2 (stereo not drawn)
0.93 |  | NS(=O)(=O)c1cc2c(cc1Cl)NC(Cc1ccccc1)NS2(=O)=O (stereo not drawn)
0.15 |  | CC1(C)Nc2cc(Cl)c(S(N)(=O)=O)cc2S(=O)(=O)N1
 | 1.11 | NS(=O)(=O)c1cc2c(cc1Cl)NC(CSCc1ccccc1)NS2(=O)=O (stereo not drawn)
0.03 |  | CC1=Nc2cc(Cl)c(S(N)(=O)=O)cc2S(=O)(=O)N1
0.08 |  | CC1Nc2cc(Cl)c(S(N)(=O)=O)cc2S(=O)(=O)N1 (stereo not drawn)
0.49 |  | NS(=O)(=O)c1cc2c(cc1Cl)NC(C(F)(F)F)NS2(=O)=O (stereo not drawn)
1 |  | NS(=O)(=O)c1cc2c(cc1Cl)NC1(CCCCC1)NS2(=O)=O
0.36 |  | CC(C)(C)C1Nc2cc(Cl)c(S(N)(=O)=O)cc2S(=O)(=O)N1 (stereo not drawn)
0.11 |  | NS(=O)(=O)c1cc2c(cc1Cl)NC(CCl)NS2(=O)=O (stereo not drawn)

Further lines, the compound ahead of its results:

Compound | logD (pH 6.5) | logD (pH 6.4)
CC1CCC2(CC1)Nc1ccc(S(N)(=O)=O)cc1S(=O)(=O)N2 (stereo not drawn) | 1.56 | 
NS(=O)(=O)c1cc2c(cc1C(F)(F)F)N=CNS2(=O)=O | 0.32 | 
NS(=O)(=O)c1cc2c(cc1[N+](=O)[O-])NCNS2(=O)=O | 0.2 | 
NS(=O)(=O)c1ccc2c(c1)S(=O)(=O)NCN2 | -0.52 | 
NS(=O)(=O)c1cc2c(cc1Cl)N=C(Cc1ccccc1)NS2(=O)=O | 1.56 | 
Cc1cc2c(cc1S(N)(=O)=O)S(=O)(=O)N=CN2 | -0.32 | 
NS(=O)(=O)c1cc2c(cc1Cl)N=C(c1ccccc1)NS2(=O)=O | 1.1 | 
NS(=O)(=O)c1cc2c(cc1F)N=CNS2(=O)=O | -0.29 | 
CCCC1=Nc2cc(Cl)c(S(N)(=O)=O)cc2S(=O)(=O)N1 | 1.15 | 
NS(=O)(=O)c1ccc2c(c1)S(=O)(=O)NC(C(Cl)Cl)N2 (stereo not drawn) | 0.46 | 
CCCCCC1=NS(=O)(=O)c2cc(S(N)(=O)=O)c(Cl)cc2N1 | 2.01 | 
NS(=O)(=O)c1cc2c(cc1[N+](=O)[O-])N=CNS2(=O)=O | 0.08 | 
Cc1cc2c(cc1S(N)(=O)=O)S(=O)(=O)NCN2 | -0.22 | 
NS(=O)(=O)c1cc2c(cc1Br)NCNS2(=O)=O | 0.08 | 
NS(=O)(=O)c1ccc2c(c1)S(=O)(=O)NC=N2 | -0.62 | 
NS(=O)(=O)c1cc2c(cc1C(F)(F)C(F)(F)F)N=CNS2(=O)=O | 1.05 | 
NS(=O)(=O)c1ccc2c(c1)S(=O)(=O)NC(Cc1ccccc1)N2 (stereo not drawn) | 1.03 | 
NS(=O)(=O)c1cc2c(cc1Br)N=CNS2(=O)=O | 0 | 
NS(=O)(=O)c1ccc2c(c1)S(=O)(=O)NC(CC1CCCC1)N2 (stereo not drawn) | 1.24 | 
